Legend:
Format in all cases: cell-based, murine
[1] = tested on: TNFα secretion from RAW 264.7 cells; assay: LPS-induced TNFα secretion from RAW 264.7 macrophage cells; conditions: 1 hour pretreatment at 0.5 μg/mL, FIG. 11
Description: (§1) FIG. 11 illustrates in vitro early (6 hours after LPS stimulation) and late (24 hours after LPS stimulation) phase inhibition of TNFα secretion from macrophage cells (RAW264.7) pre-incubated with different levels of curcumin for 1 hour and then treated with LPS; Specific studies have determined effects of the hydrolysates on TNFα secretion, 4-1BBL expression, and NF-κB Expression in murine macrophages (RAW 264.7 cells) treated with LPS (see FIGS. 1-13). RPH-1 inhibits early and late phase TNFα secretion from cells in culture.

[2] = tested on: 4-1BBL expression in RAW 264.7 cells; assay: LPS-induced 4-1BBL expression in RAW 264.7 macrophage cells; conditions: 1 hour pretreatment at 0.5 μg/mL, FIG. 12
Description: as §1, with “FIG. 5 illustrates in vitro early (6 hours after LPS stimulation) and late phase (24 hours after LPS stimulation) inhibition of 4-1BBL expression in macrophage cells (RAW264.7) pre-incubated for 1 hour with RPH-land then treated with LPS; […] FIG. 12” for “FIG. 11”, “of 4-1BBL expression in” for “of TNFα secretion from”, “pre-incubated for 1 hour” for “pre-incubated”, “curcumin” for “curcumin for 1 hour”

[3] = tested on: NF-κB activation in RAW 264.7 cells; assay: LPS-induced NF-κB activation in RAW 264.7 macrophage cells; conditions: 2.5 μg/mL pretreatment for 2 hours; 30 min after LPS stimulation; FIG. 13
Description: FIG. 6 illustrates in vitro NF-κB activation (30 min after LPS stimulation) in macrophage cells (RAW264.7) preincubated for 2 hours with RPH-1 and then treated with LPS; FIG. 13 illustrates in vitro inhibition of nuclear factor kappa-light-chain-enhancer of activated B cells (NF-κB) activation in macrophage cells (RAW264.7) pre-incubated with curcumin for 2 hours and treated with LPS for 30 minutes; Specific studies have determined effects of the hydrolysates on TNFα secretion, 4-1BBL expression, and NF-κB Expression in murine macrophages (RAW 264.7 cells) treated with LPS (see FIGS. 1-13). Pretreatment with curcumin at 0.5 μg/mL and […] for 1 hour led to an inhibition of TNFα secretion (FIG. 11) and 4-IBBL expression (FIG. 12) at 6 hours and 24 hours following LPS treatment.

COc1cc(C=CC(=O)CC(=O)C=Cc2ccc(O)c(OC)c2)ccc1O [curcumin, 1,7-Bis-(4-hydroxy-3-methoxyphenyl)-hepta-1,6-diene-3,5-dione]
TNFα secretion, early phase ([1]; 6 hours after LPS): inhibition | TNFα secretion, late phase ([1]; 24 hours after LPS): inhibition | 4-1BBL expression, early phase ([2]; 6 hours after LPS): inhibition | 4-1BBL expression, late phase ([2]; 24 hours after LPS): inhibition | LPS-induced NF-κB expression [3]: decreased

From US20200214330A1, “RICE PROTEIN HYDROLYSATES WITH ANTI-INFLAMMATORY PROPERTIES” (ABBOTT LABORATORIES, priority 2017, published 2020)
